Data set [1] has as its system liver disorder induced by carbon tetrachloride. In words: Effect on liver disorder induced by carbon tetrachloride in rats, serum GOT, GPT, AlP, bilirubin (Example 26). It counts as in vivo, SLC-Wistar male rats. On the procedure:
(§1) Effect of the compounds according to the present invention on liver disorder induced by carbon tetrachloride
(§2) The effects of the sample compounds to be tested on hepatic disorder were evaluated by determining the levels of GOT, GPT, AlP, and bilirubin, which are known as an indicator of hepatic disorder, in serum, after administering carbon tetrachloride and the sample compounds to SLC-Wistar male rats (9 weeks old and body weight of 210 to 250 g in Tables 1, 3, and 4, and 10 weeks old and body weight of 230 to 260 g in Table 2) as follows.
(§3) Five rats were used in each test group. The sample compound (i.e., each compound listed below) was suspended at a concentration of 40 mg/ml in a 0.1% aqueous solution of Tween-80 (i.e., nonionic surfactant available from Atlas Powder Co., Ltd.). The resultant suspension was orally administered at a dose of 200 mg/kg each at 25 hours and 1 hour before the administration of carbon tetrachloride, except for the control group. For the control group to which only carbon tetrachloride was administered in the evaluation test, a 0.1% aqueous Tween-80 was orally administered at a dose of 5 ml/kg in the same manner.
(§4) Carbon tetrachloride was intraperiotoneally administered as a 10% olive oil solution at a dose of 5 ml/kg (0.5 ml/kg in terms of CC14) one hour after the final administration of the sample compound. For the control (normal) group, olive oil was intraperitoneally administered in the same manner at a dose of 5 ml/kg.
(§5) Blood samples were collected from the carotid artery under pentobarbital anesthesia, 24 hours after the administration of carbon tetrachloride. The rats were fasted for 18 to 22 hours before collecting the blood samples.
(§6) The determination of GOT and GPT in serum was carried out according to a UV method, the determination of AlP was carried cut according to Bessy-Lowry method, and the determination of bilirubin was carried out according to a diazo method.

The nature of data set [2]: Acute toxicity, oral LD50 in rats (Example 28). The settings on record: rat, in vivo, male rats 5 weeks old, 130 to 150 g, observed for one week. From the text: Acute toxicity of the compounds according to the present invention
Data set [3] relates to liver disorder induced by carbon tetrachloride. Briefly: Effect on liver disorder induced by carbon tetrachloride in rats, repeat with 8 weeks old rats (Example 27). It counts as in vivo, SLC-Wistar male rats. The note with it: serum 24 hours after CCl4, 200 mg/kg orally x2, rats 8 weeks old. As to the method: as §2, §3, §4, §5, §6, §1
The evaluation tests of Example 26 were repeated except that SLC-Wistar male rats (8 weeks old and body weight of 170 to 210 g) were used.

[4] abbreviates: Table 1, serum 24 hours after CCl4 0.5 ml/kg i.p., compound 200 mg/kg orally 25 hours and 1 hour before CCl4, rats 9 weeks old, CCl4 only 17327 ± 2336, normal 76 ± 1.
The mark [5] stands for this setting: Table 1, serum 24 hours after CCl4, 200 mg/kg orally x2, rats 9 weeks old, CCl4 only 0.62 ± 0.30, normal 0.10 ± 0.00.
Setting [6] is: Table 1, serum 24 hours after CCl4, 200 mg/kg orally x2, rats 9 weeks old, CCl4 only 35.5 ± 2.5, normal 23.6 ± 0.4.
The mark [7] stands for this setting: Table 1, serum 24 hours after CCl4, 200 mg/kg orally x2, rats 9 weeks old, CCl4 only 10496 ± 1221, normal 31 ± 2.
Where [8] appears, read: Table 4, serum 24 hours after CCl4, 200 mg/kg orally x2, rats 9 weeks old, CCl4 only 0.38 ± 0.04, normal 0.10 ± 0.00.
[9] abbreviates: Table 4, serum 24 hours after CCl4, 200 mg/kg orally x2, rats 9 weeks old, CCl4 only 35.0 ± 2.0, normal 24.4 ± 0.7.
[10] abbreviates: Table 4, serum 24 hours after CCl4, 200 mg/kg orally x2, rats 9 weeks old, CCl4 only 10523 ± 2313, normal 31 ± 3.
Where [11] appears, read: Table 4, serum 24 hours after CCl4, 200 mg/kg orally x2, rats 9 weeks old, CCl4 only 17704 ± 4140, normal 76 ± 4.
Setting [12] is: Table 3, serum 24 hours after CCl4, 200 mg/kg orally x2, rats 9 weeks old, CCl4 only 0.38 ± 0.06, normal 0.22 ± 0.04.
Where [13] appears, read: Table 3, serum 24 hours after CCl4, 200 mg/kg orally x2, rats 9 weeks old, CCl4 only 34.4 ± 2.6, normal 27.0 ± 0.5.
The mark [14] stands for this setting: Table 3, serum 24 hours after CCl4, 200 mg/kg orally x2, rats 9 weeks old, CCl4 only 9188 ± 1815, normal 30 ± 2.
The mark [15] stands for this setting: Table 3, serum 24 hours after CCl4, 200 mg/kg orally x2, rats 9 weeks old, CCl4 only 13189 ± 2205, normal 81 ± 3.
The mark [16] stands for this setting: Table 5, 170 to 210 g, CCl4 only 27875 ± 3628, normal 78 ± 3.
[17] abbreviates: Table 5, CCl4 only 0.55 ± 0.16, normal 0.10 ± 0.00.
The mark [18] stands for this setting: Table 5, CCl4 only 41.3 ± 2.5, normal 25.7 ± 0.4.
[19] abbreviates: Table 5, CCl4 only 12984 ± 1465, normal 30 ± 3.

In data set [1] (setting [4]), `CC(=O)C1=C(C)NC(C)=C(C#N)C1C1=COCCO1` (stereo not drawn) [Sample Compound B, 3-acetyl-5-cyano-4-[2-(5,6-dihydro-p-dioxinyl)]-2,6-dimethyl-l,4-dihydropyridine] gave a GOT of 1604 ± 569 K.U. Besides, the Bilirubin in data set [1] (setting [5]) came out at 0.20 ± 0.00 mg/dL. Further, the AlP in data set [1] (setting [6]) stood at 34.1 ± 3.4 K-AU. For the same compound, the GPT in data set [1] (setting [7]) is recorded as 1023 ± 368 K.U.

In data set [1] (Table 2, serum 24 hours after CCl4, 200 mg/kg orally x2, rats 10 weeks old, 230 to 260 g, CCl4 only 20701 ± 2821, normal 89 ± 12), `COC(=O)C1=C(C)NC(C)=C(C#N)C1C1=COCCO1` (stereo not drawn) [Sample Compound C, methyl 5-cyano-4-[2-(5,6-dihydro-p-dioxinyl)]-2,6-dimethyl-1,4-dihydropyridine-3-carboxylate] registered a GOT of 1447 ± 313 K.U. Also, the Bilirubin in data set [1] (Table 2, serum 24 hours after CCl4, 200 mg/kg orally x2, rats 10 weeks old, CCl4 only 0.40 ± 0.09, normal 0.10 ± 0.00) came to 0.20 ± 0.00 mg/dL. This compound returned an AlP in data set [1] (Table 2, serum 24 hours after CCl4, 200 mg/kg orally x2, rats 10 weeks old, CCl4 only 32.3 ± 2.8, normal 22.7 ± 0.6) of 31.7 ± 3.2 K-AU. Further, the GPT in data set [1] (Table 2, serum 24 hours after CCl4, 200 mg/kg orally x2, rats 10 weeks old, CCl4 only 11034 ± 1354, normal 41 ± 3) was 912 ± 198 K.U.

With `COCC(C)OC(=O)C1=C(C)NC(C)=C(C(=O)OC(C)COC)C1C1=COCCO1` (stereo not drawn) [Sample Compound D, bis(1-methyl-2-methoxyethyl) 4-[2-(5,6-dihydro-p-dioxinyl)]-2,6-dimethyl-l,4-dihydropyridine-3,5-dicarboxylate], the GOT in data set [1] (setting [4]) came out at 2572 ± 518 K.U. Moreover, the Bilirubin in data set [1] (setting [5]) amounted to 0.20 ± 0.00 mg/dL. In data set [1] (setting [6]), this compound returned an AlP of 31.0 ± 1.5 K-AU. Also, the GPT in data set [1] (setting [7]) is 2050 ± 419 K.U.

In turn, `CC1=C(C(=O)OC(C)C)C(C2=COCCO2)C(C(=O)OC(C)C)=C(C)N1` [Sample Compound G] came in with a Bilirubin in data set [1] (setting [8]) of 0.22 ± 0.02 mg/dL. The AlP in data set [1] (setting [9]) was determined as 31.5 ± 1.2 K-AU. Moreover, the GPT in data set [1] (setting [10]) was determined as 2994 ± 638 K.U. In addition, the GOT in data set [1] (setting [11]) was determined as 3482 ± 707 K.U.

Turning to `C=CCOC(=O)C1=C(C)NC(C)=C(C(=O)OCC=C)C1C1=COCCO1` [Sample Compound H, diallyl 4-[2-(5,6-dihydro-p-dioxinyl)]-2,6-dimethyl-l,4-dihydropyridine-3,5-dicarboxylate], in data set [1] (setting [8]), the Bilirubin was 0.22 ± 0.04 mg/dL. The AlP in data set [1] (setting [9]) stood at 29.5 ± 2.4 K-AU. This compound displayed a GPT in data set [1] (setting [10]) of 1453 ± 699 K.U. The GOT in data set [1] (setting [11]) was found to be 1920 ± 881 K.U. Further, the LD50 at 168 h in data set [2] is > 1000 mg/kg.

Turning to `COC(=O)C1=C(C)NC(C)=C(C(=O)OC(C)C)C1C1=COCCO1` (stereo not drawn) [Sample Compound K, isopropyl methyl 4-[2-(5,6-dihydro-p-dioximyl)]-2,6-dimethyl-1,4-dihydropyridine-3,5-dicarboxylate], the Bilirubin in data set [1] (setting [8]) stood at 0.24 ± 0.02 mg/dL. For the same compound, the AlP in data set [1] (setting [9]) amounted to 29.6 ± 0.8 K-AU. The compound also registered a GPT in data set [1] (setting [10]) of 1657 ± 436 K.U. Also, the GOT in data set [1] (setting [11]) came to 2290 ± 619 K.U.

For the compound `COC(=O)C1=C(C)NC(C)=C(C(C)=O)C1C1=COCCO1` (stereo not drawn) [Sample Compound M, methyl 5-acetyl-4-[2-(5,6-dihydro-p-dioxinyl)]-2,6-dimethyl-l,4-dihydropyridine-3-carboxylate], in data set [1] (setting [8]), the Bilirubin came out at 0.20 ± 0.00 mg/dL. Moreover, the AlP in data set [1] (setting [9]) worked out at 29.1 ± 1.1 K-AU. The GPT in data set [1] (setting [10]) came to 428 ± 88 K.U. Besides, in data set [1] (setting [11]), the GOT was 807 + 176 K.U.

In turn, `COCCOC(=O)C1=C(C)NC(C)=C(C(C)=O)C1C1=COCCO1` (stereo not drawn) [Sample Compound N, 2-methoxyethyl 5-acetyl-4-[2-(5,6-dihydro-p-dioxinyl)]-2,6-dimethyl-1,4-dihydropyridine-3-carboxylate] showed a Bilirubin in data set [1] (setting [8]) of 0.18 ± 0.02 mg/dL. Besides, the AlP in data set [1] (setting [9]) amounted to 28.5 ± 1.7 K-AU. This compound yielded a GPT in data set [1] (setting [10]) of 2860 ± 858 K.U. The compound further returned a GOT in data set [1] (setting [11]) of 3430 ± 922 K.U.

The compound `CC(=O)C1=C(C)NC(C)=C(C(C)=O)C1C1=COCCC1` [Sample Compound P, 3,5-diacetyl-4-[5-(3,4-dihydro-2H-pyranyl)]-2,6-dimethyl-1,4-dihydropyridine] gave a Bilirubin in data set [1] (setting [12]) of 0.32 ± 0.02 mg/dL. This compound also had an AlP in data set [1] (setting [13]) of 35.1 ± 1.4 K-AU. The same compound displayed a GPT in data set [1] (setting [14]) of 616 ± 193 K.U. The GOT in data set [1] (setting [15]) came to 899 ± 252 K.U.

In turn, `CC(=O)C1=C(C)NC(C)=C(C(C)=O)C1C1=CSCCS1` [Sample Compound Q, 3,5-diacetyl-4-[2-(5,6-dihydro-1,4-dithiinyl)]-2,6-dimethyl-1,4-dihydropyridine] showed a Bilirubin in data set [1] (setting [12]) of 0.26 ± 0.02 mg/dL. For the same compound, the AlP in data set [1] (setting [13]) was 29.8 ± 1.3 K-AU. This compound registered a GPT in data set [1] (setting [14]) of 1891 ± 357 K.U. In data set [1] (setting [15]), this compound returned a GOT of 2583 ± 540 K.U.

The compound `COCOC(=O)C1=C(C)N(COC)C(C)=C(C(=O)OCOC)C1C1=COCCO1` [Sample Compound S, bis(methoxymethyl) 4-[2-(5,6-dihydro-p-dioxinyl)]-1-methoxymethyl-2,6-dimethyl-1,4-dihydropyridine-3,5-dicarboxylate] yielded a GOT in data set [3] (setting [16]) of 461 ± 162 K.U. The Bilirubin in data set [3] (setting [17]) came out at 0.10 ± 0.00 mg/dL. In data set [3] (setting [18]), this compound displayed an AlP of 26.3 ± 0.8 K-AU. Moreover, the GPT in data set [3] (setting [19]) is on record as 313 ± 120 K.U.

As to `COC(=O)C1=C(C)NC(C)=C(C(=O)OC)C1C1=C(C)OC(C)CO1` (stereo not drawn) [Sample Compound T, dimethyl 2,6-dimethyl-4-[2-(3,5-dimethyl-5,6-dihydro-p-dioxinyl)] -1,4-dihydropyridine-3,5-dicarbcxylate], the GOT in data set [3] (setting [16]) is recorded as 5538 ± 954 K.U. The Bilirubin in data set [3] (setting [17]) stood at 0.25 ± 0.03 mg/dL. Moreover, in data set [3] (setting [18]), the AlP is on record as 34.4 ± 1.7 K-AU. The compound also displayed a GPT in data set [3] (setting [19]) of 4156 ± 196 K.U.

`COCOC(=O)C1=C(C)NC(C)=C(C(=O)OCOC)C1C1=C(C)OC(C)CO1` (stereo not drawn) [Sample Compound U, bis (methcxymethyl) 2,6-dimethyl-4-[2-(3,5-dimethyl-5,6-dihydro-p-dioxinyl)]-1,4-dihydropyridine-3,5-dicarboxylate] had a GOT in data set [3] (setting [16]) of 608 ± 214 K.U. The Bilirubin in data set [3] (setting [17]) was determined as 0.10 ± 0.00 mg/dL. The compound also registered an AlP in data set [3] (setting [18]) of 27.0 ± 1.0 K-AU. The compound further returned a GPT in data set [3] (setting [19]) of 384 ± 135 K.U.

Take `CC(=O)C1=C(C)NC(C)=C(C(C)=O)C1C1=C(C)OCCO1` [Sample Compound W, 3,5-diacetyl-2,6-dimethyl-4-[2-(3-methyl-5,6-dihydro-p-dioxinyl)]-1,4-dihydropyridine]: the Bilirubin in data set [3] (Table 6, CCl4 only 0.50 ± 0.08, normal 0.12 ± 0.02) is 0.20 ± 0.00 mg/dL. This compound registered an AlP in data set [3] (Table 6, CCl4 only 52.5 ± 2.2, normal 36.3 ± 1.6) of 49.5 ± 3.0 K-AU. The same compound showed a GPT in data set [3] (Table 6, CCl4 only 12606 ± 1688, normal 39 ± 4) of 805 ± 195 K.U. The compound also gave a GOT in data set [3] (Table 6, CCl4 only 23424 ± 3360, normal 79 ± 2) of 1194 ± 234 K.U.

As usually defined, the LD50 is the dose at which mortality reaches 50%. Higher therefore signals lower toxicity.

Values taken from patent EP0118120A2, “1,4-Dihydropyridine compound” (priority 1983, dated 1984).
